The record followed here is US8338598B2, “Herbicidal pyrido[2,3-B]pyrazines and their use as herbicides” (Syngenta Limited, priority 2008, dated 2012).

Holding throughout (assay type): in vivo
The test system of one experiment is Nasturtium officinale. Put plainly: Example B1 herbicidal action, post-emergence, seed trays in climatic chamber. The following applies: 1000 g/ha, evaluated after 9 days, 10=total damage to plant, 0=no damage to plant. As to the method:
(§1) Seeds of a variety of test species were sown in sterilised standard soil in seed trays each having 96 cells. After cultivation for 8 to 9 days cultivation (post-emergence) under controlled conditions in a climatic chamber (cultivation at 23/17° C., day/night; 13 hours light; 50-60% humidity), the plants were treated with an aqueous spray solution of 1000 mg/l of the active ingredient dissolved in 10% DMSO (dimethyl sulfoxide, CAS RN 67-68-5) as a solvent, equivalent to 1000 g/ha. The plants were grown in the climatic chamber after application at (24/19° C., day/night; 13 hours light; 50-60% humidity) and watered twice daily. After 9 days until the test was evaluated (10=total damage to plant, 0=no damage to plant)

Experiment [1] deals with Solanum nigrum. The description is as above. The following applies: 1000 g/ha, evaluated after 9 days, 10=total damage to plant, 0=no damage to plant. As to the method: as §1
In experiment [2] the test system is Amaranthus retroflexus. The experiment is described as above. The conditions noted are these: 1000 g/ha, evaluated after 9 days, 10=total damage to plant, 0=no damage to plant. As to the method:
as §1

Another experiment concerns Stellaria media. The experiment is described as above. The conditions noted are these: 1000 g/ha, evaluated after 9 days, 10=total damage to plant, 0=no damage to plant. As to the method: as §1
Experiment [3] has as its system Setaria faberi. Kind of experiment: Example B2 herbicidal action, post-emergence, pots in glasshouse. The following applies: 1000 g/ha, evaluated after 13 days, 10=total damage to plant, 0=no damage to plant. As to the method:
(§2) Seeds of a variety of test species were sown in standard soil in pots. After cultivation for one day (pre-emergence) or after 8 days cultivation (post-emergence) under controlled conditions in a glasshouse (at 24/16° C., day/night; 14 hours light; 65% humidity), the plants were sprayed with an aqueous spray solution derived from the formulation of the technical active ingredient in acetone/water (50:50) solution containing 0.5% Tween 20 (polyoxyethelyene sorbitan monolaurate, CAS RN 9005-64-5). The test plants were then grown in a glasshouse under controlled conditions in a glasshouse (at 24/16° C., day/night; 14 hours light; 65% humidity) and watered twice daily. After 13 days, the test was evaluated (10=total damage to plant; 0=no damage to plant).

The test system of experiment [4] is Echinochloa crus-galli. The description is as above. The conditions noted are these: 1000 g/ha, evaluated after 13 days, 10=total damage to plant, 0=no damage to plant. As to the method:
as §2

Experiment [5] concerns Ipomea hederaceae. The experiment is described as above. The conditions noted are these: 1000 g/ha, evaluated after 13 days, 10=total damage to plant, 0=no damage to plant. As to the method: as §2
Experiment [6] concerns Solanum nigrum. Described as above. The following applies: 1000 g/ha, evaluated after 13 days, 10=total damage to plant, 0=no damage to plant. As to the method:
as §2

The test system of experiment [7] is Amaranthus retroflexus. The experiment is described as above. The conditions noted are these: 1000 g/ha, evaluated after 13 days, 10=total damage to plant, 0=no damage to plant. As to the method:
as §2

Experiment [8] deals with Setaria faberi. Kind of experiment: Example B2 herbicidal action, pre-emergence, pots in glasshouse. The conditions noted are these: 1000 g/ha, evaluated after 13 days, 10=total damage to plant, 0=no damage to plant. As to the method:
as §2

Experiment [9] has as its system Echinochloa crus-galli. The experiment is described as above. The following applies: 1000 g/ha, evaluated after 13 days, 10=total damage to plant, 0=no damage to plant. As to the method:
as §2

Experiment [10] concerns Ipomea hederaceae. The description is as above. The following applies: 1000 g/ha, evaluated after 13 days, 10=total damage to plant, 0=no damage to plant. As to the method:
as §2

Experiment [11] relates to Solanum nigrum. The experiment is described as above. The conditions noted are these: 1000 g/ha, evaluated after 13 days, 10=total damage to plant, 0=no damage to plant. As to the method:
as §2

Experiment [12] deals with Amaranthus retroflexus. Described as above. The following applies: 1000 g/ha, evaluated after 13 days, 10=total damage to plant, 0=no damage to plant. As to the method:
as §2

As to `CC(C)C(=O)Oc1c(-c2cc(C(F)(F)F)no2)c(=O)n(C)c2nccnc12` [Compound B8, isobutyric acid 5-methyl-6-oxo-7-(3-trifluoromethyl-isoxazol-5-yl)-5,6-dihydro-pyrido[2,3-b]pyrazin-8-yl ester], the “NAAOF, damage to plant” value in the experiment on Nasturtium officinale is on record as 2. In addition, the “SOLNI, damage to plant” value in the experiment with Solanum nigrum [1] is 2. In addition, in the experiment on Amaranthus retroflexus [2], the “AMARE, damage to plant” value is 0. Moreover, in the experiment with Stellaria media, the “STEME, damage to plant” value is on record as 0.
On to `CC(C)(C)C(=O)Oc1c(-c2ccc(Cl)nc2Cl)c(=O)n(CC(F)F)c2nccnc12` [Compound A16, 2,2-dimethyl-propionic acid 7-(2,6-dichloro-pyrid-3-yl)-5-(2,2-difluoro-ethyl)-6-oxo-5,6-dihydro-pyrido[2,3-b]pyrazin-8-yl ester], for which the “SETFA, damage to plant” value in the experiment on Setaria faberi [3] came out at 6; in the experiment with Setaria faberi [8] it was 0. Besides, the entries for the “ECHCG, damage to plant” value in the experiment with Echinochloa crus-galli [4] and with Echinochloa crus-galli [9] were 6 and 2, respectively. Besides, the “IPOHE, damage to plant” value worked out at 7 with Ipomea hederaceae [5] and 2 with Ipomea hederaceae [10]. The “SOLNI, damage to plant” value turned out to be 9 in the experiment with Solanum nigrum [6] and 5 in the experiment on Solanum nigrum [11]. Further, the “AMARE, damage to plant” value in the experiment on Amaranthus retroflexus [7] came to 10; with Amaranthus retroflexus [12], 0.
Regarding `CC(C)(C)C(=O)Oc1c(-c2c(Cl)ccnc2Cl)c(=O)n(CC(F)F)c2nccnc12` [Compound A18, 2,2-Dimethyl-propionic acid 7-(2,4-dichloro-pyrid-3-yl)-5-(2,2-difluoro-ethyl)-6-oxo-5,6-dihydro-pyrido[2,3-b]pyrazin-8-yl ester], the “SETFA, damage to plant” value in the experiment on Setaria faberi [3] was found to be 7; in the experiment with Setaria faberi [8], 5. In addition, the “ECHCG, damage to plant” value in the experiment with Echinochloa crus-galli [4] and in the experiment with Echinochloa crus-galli [9] was 7 each time. Besides, the results for the “IPOHE, damage to plant” value with Ipomea hederaceae [5] and in the experiment with Ipomea hederaceae [10] were 9 and 6, respectively. The “SOLNI, damage to plant” value in the experiment on Solanum nigrum [6] and in the experiment with Solanum nigrum [11] was 9 throughout. The “AMARE, damage to plant” value is reported as 10 with Amaranthus retroflexus [7] and 6 in the experiment with Amaranthus retroflexus [12].
In the case of `Cn1nc(C(F)(F)F)c(-c2c(O)c3nccnc3[nH]c2=O)c1OC(F)F` [Compound B26, 7-(5-difluoromethoxy-1-methyl-3-trifluoromethyl-1H-pyrazol-4-yl)-8-hydroxy-5H-pyrido[2,3-b]pyrazin-6-one], the “SETFA, damage to plant” value was 8 with Setaria faberi [3] and 0 with Setaria faberi [8]. For the same molecule, the entries for the “ECHCG, damage to plant” value in the experiment on Echinochloa crus-galli [4] and in the experiment on Echinochloa crus-galli [9] were 6 and 1, respectively. For the same molecule, the figures for the “IPOHE, damage to plant” value with Ipomea hederaceae [5] and with Ipomea hederaceae [10] were 3 and 0, respectively. Moreover, the “SOLNI, damage to plant” value in the experiment with Solanum nigrum [6] is on record as 3; with Solanum nigrum [11], 0. In addition, the “AMARE, damage to plant” value is recorded as 5 in the experiment on Amaranthus retroflexus [7] and 1 in the experiment on Amaranthus retroflexus [12].
For the molecule `CC(C)C(=O)Oc1c(-c2c(C(F)(F)F)nn(C)c2OC(F)F)c(=O)n(CC(F)F)c2nccnc12` [Compound B24, isobutyric acid 7-(5-difluoromethoxy-1-methyl-3-trifluoromethyl-1H-pyrazol-4-yl)-5-(2,2-difluoro-ethyl)-6-oxo-5,6-dihydro-pyrido[2,3-b]pyrazin-8-yl ester], the “SETFA, damage to plant” value in the experiment with Setaria faberi [3] is listed as 8; in the experiment on Setaria faberi [8], 7. The “ECHCG, damage to plant” value in the experiment on Echinochloa crus-galli [4] and with Echinochloa crus-galli [9] was 8 throughout. The “IPOHE, damage to plant” value with Ipomea hederaceae [5] is recorded as 8; in the experiment on Ipomea hederaceae [10], 5. In addition, the entries for the “SOLNI, damage to plant” value with Solanum nigrum [6] and with Solanum nigrum [11] were 10 and 8, respectively. Moreover, the “AMARE, damage to plant” value in the experiment with Amaranthus retroflexus [7] worked out at 9; in the experiment with Amaranthus retroflexus [12], 10.
On to `O=c1c(-c2c(Cl)cncc2Cl)c(O)c2nccnc2n1CC(F)F` [Compound A12, 7-(3,5-Dichloro-pyrid-4-yl)-5-(2,2-difluoro-ethyl)-8-hydroxy-5H-pyrido[2,3-b]pyrazin-6-one], for which the entries for the “SETFA, damage to plant” value with Setaria faberi [3] and in the experiment with Setaria faberi [8] were 8 and 4, respectively. Further, the results for the “ECHCG, damage to plant” value in the experiment with Echinochloa crus-galli [4] and with Echinochloa crus-galli [9] were 8 and 6, respectively. Besides, the “IPOHE, damage to plant” value is recorded as 9 in the experiment on Ipomea hederaceae [5] and 5 in the experiment on Ipomea hederaceae [10]. Moreover, the “SOLNI, damage to plant” value in the experiment on Solanum nigrum [6] is 10; with Solanum nigrum [11] it was 2. Further, the “AMARE, damage to plant” value with Amaranthus retroflexus [7] is 9; in the experiment with Amaranthus retroflexus [12], 4.
